Assay: Drug interaction and stability with β-limit dextrin in solution
Format: physicochemical
Excerpt: There are many potential applications with respect to dispersing and solubilising insoluble compounds. […] Drug interaction and stability with β-limit dextrin in solution

[1] = drug 1% in β-limit dextrin (5%)
[2] = drug 1% in β-limit dextrin (10%)

SMILES	Drug interaction and stability in solution (drug 1% in Water)	Drug interaction and stability in solution [1]	Drug interaction and stability in solution [2]
Cn1c(=O)c2[nH]cnc2n(C)c1=O [Theophylline]	Not suspended	Suspended	Suspended
O=C1O[C@H]([C@@H](O)CO)C(O)=C1O [Ascorbic acid]	Dissolved	Dissolved	Dissolved
CC(=O)Oc1ccccc1C(=O)O [Aspirin]	Not suspended	Suspended	Suspended
